These compounds were tested against T1, Human complement C1s enzyme (Homo sapiens, UniProt P09871) (assay: Human C1s Enzyme Assay). Conditions: Table 2; C1s purified from human serum, 1.16 nM; substrate Z-L-Lys-SBzl; read-out: C1s Protease Activity.
T1 construct: purified from human serum, Complement Technology, Inc; purchased Complement Technology, Inc; host or cells: human serum (plasma-derived natural protein)
T1 sequence (P09871 438-688 limits assumed): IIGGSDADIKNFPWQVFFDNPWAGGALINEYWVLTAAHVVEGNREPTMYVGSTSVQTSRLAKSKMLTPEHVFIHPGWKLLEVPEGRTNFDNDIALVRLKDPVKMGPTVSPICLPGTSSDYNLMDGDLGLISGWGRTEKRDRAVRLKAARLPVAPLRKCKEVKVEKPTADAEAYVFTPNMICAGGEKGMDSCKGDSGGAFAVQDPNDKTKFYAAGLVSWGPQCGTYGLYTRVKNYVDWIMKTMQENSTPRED
T1 sequence (P09871 16-437 partner limits assumed): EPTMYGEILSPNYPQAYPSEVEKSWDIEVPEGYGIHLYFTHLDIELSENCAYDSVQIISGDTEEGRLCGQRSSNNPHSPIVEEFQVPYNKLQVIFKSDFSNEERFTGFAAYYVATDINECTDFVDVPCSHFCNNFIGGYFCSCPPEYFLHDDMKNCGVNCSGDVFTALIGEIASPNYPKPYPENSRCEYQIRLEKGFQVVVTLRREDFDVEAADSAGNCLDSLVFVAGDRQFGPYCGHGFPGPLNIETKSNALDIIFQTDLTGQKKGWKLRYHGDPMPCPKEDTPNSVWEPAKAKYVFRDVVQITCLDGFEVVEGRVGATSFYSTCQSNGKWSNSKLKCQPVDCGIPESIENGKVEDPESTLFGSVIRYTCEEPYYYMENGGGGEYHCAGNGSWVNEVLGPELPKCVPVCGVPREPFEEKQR
Format: biochemical
Method: Example 4. Human C1s Enzyme Assay
Human complement C1s enzyme (purified from human serum, Complement Technology, Inc.) at 1.16 nM final concentration is incubated with test compound at various concentrations for 5 min at room temperature in 50 mM Tris, 1 M NaCl, pH 7.5. A synthetic substrate Z-L-Lys-SBzl and DTNB (Ellman's reagent) are added to final concentrations of 100 μM each. Absorbance at 405 nm (A405) is recorded at 30 second intervals for 30 min using a microplate spectrophotometer. IC50 values are calculated by nonlinear regression of complement C1s reaction rates as a function of test compound concentration.

Compound	IC50
N=C(N)c1csc(CNC(=O)[C@@H]2CCCN2C(=O)CCCc2ccc(Oc3ccccc3)cc2)c1 [Compound 53, (S)-N-((4-carbamimidoylthiophen-2-yl)methyl)-1-(4-(4-phenoxyphenyl)butanoyl)pyrrolidine-2-carboxamide]	< 100 nM
N=C(N)c1csc(CNC(=O)[C@@H]2CCCN2CCCC(=O)c2ccc(Oc3ccccc3)cc2)c1 [Compound 54, (S)-N-((4-carbamimidoylthiophen-2-yl)methyl)-1-(4-oxo-4-(4-phenoxyphenyl)butyl)pyrrolidine-2-carboxamide]	> 1000 nM
NCc1csc(CNC(=O)[C@@H]2CCCN2C(=O)CNC(=O)c2ccc(Oc3ccccc3)cc2)c1 [Compound 55, (S)-N-((4-(aminomethyl)thiophen-2-yl)methyl)-1-((4-phenoxybenzoyl)glycyl)pyrrolidine-2-carboxamide]	> 1000 nM
N=C(N)c1csc(CNC(=O)[C@@H]2CCCN2C(=O)CNC(=O)c2ccc(Cc3ccccc3)cc2)c1 [Compound 56, (S)-1-((4-benzylbenzoyl)glycyl)-N-((4-carbamimidoylthiophen-2-yl)methyl)pyrrolidine-2-carboxamide]	< 100 nM
CC(C)(c1ccccc1)c1ccc(C(=O)NCC(=O)N2CCC[C@H]2C(=O)NCc2cc(C(=N)N)cs2)cc1 [Compound 57, (S)-N-((4-carbamimidoylthiophen-2-yl)methyl)-1-((4-(2-phenylpropan-2-yl)benzoyl)glycyl)pyrrolidine-2-carboxamide]	< 100 nM
CC(c1ccccc1)c1ccc(C(=O)NCC(=O)N2CCC[C@H]2C(=O)NCc2cc(C(=N)N)cs2)cc1 (stereo partly drawn) [Compound 58, (2S)-N-((4-carbamimidoylthiophen-2-yl)methyl)-1-((4-(1-phenylethyl)benzoyl)glycyl)pyrrolidine-2-carboxamide]	< 100 nM
N=C(N)c1csc(CNC(=O)[C@@H]2CCCN2C(=O)NNC(=O)c2ccc(Oc3ccccc3)cc2)c1 [Compound 59, (S)-N-((4-carbamimidoylthiophen-2-yl)methyl)-1-(2-(4-phenoxybenzoyl)hydrazine-1-carbonyl)pyrrolidine-2-carboxamide]	100 to 1000 nM
CC(N)c1csc(CNC(=O)[C@@H]2CCCN2C(=O)CNC(=O)c2ccc(Oc3ccccc3)cc2)c1 (stereo partly drawn) [Compound 60, (2S)-N-((4-(1-aminoethyl)thiophen-2-yl)methyl)-1-((4-phenoxybenzoyl)glycyl)pyrrolidine-2-carboxamide]	> 1000 nM
CO[C@@H]1C[C@H](C(=O)NCc2cc(C(=N)N)cs2)[C@H](C(=O)CNC(=O)c2ccc(Oc3ccccc3)cc2)C1 [Compound 61, N-(2-((1R,2S,4S)-2-(((4-carbamimidoylthiophen-2-yl)methyl)carbamoyl)-4-methoxycyclopentyl)-2-oxoethyl)-4-phenoxybenzamide]	> 1000 nM
CO[C@@H]1C[C@H](C(=O)CNC(=O)c2ccc(Oc3ccccc3)cc2)[C@@H](C(=O)NCc2cc(C(=N)N)cs2)C1 [Compound 62, N-(2-((1S,2S,4R)-2-(((4-carbamimidoylthiophen-2-yl)methyl)carbamoyl)-4-methoxycyclopentyl)-2-oxoethyl)-4-phenoxybenzamide]	> 1000 nM
N#C/N=C(\N)c1csc(CNC(=O)[C@@H]2CC3(CN2C(=O)CNC(=O)c2ccc(Oc4ccccc4)cc2)OCCO3)c1 [Compound 63, (S,Z)-N-((4-(N′-cyanocarbamimidoyl)thiophen-2-yl)methyl)-7-((4-phenoxybenzoyl)glycyl)-1,4-dioxa-7-azaspiro[4.4]nonane-8-carboxamide]	< 100 nM
Cc1cc(C(=O)NCC(=O)N2CC3(C[C@H]2C(=O)NCc2cc4c(N)nccc4s2)OCCO3)ccc1Oc1ccccc1 [Compound 64, (S)-N-((4-aminothieno[3,2-c]pyridin-2-yl)methyl)-7-((3-methyl-4-phenoxybenzoyl)glycyl)-1,4-dioxa-7-azaspiro[4.4]nonane-8-carboxamide]	100 to 1000 nM
N=C(N)NOCCNC(=O)[C@@H]1CC2(CN1C(=O)CNC(=O)c1ccc(Oc3ccccc3)cc1)OCCO2 [Compound 65, (S)-N-(2-(guanidinooxy)ethyl)-7-((4-phenoxybenzoyl)glycyl)-1,4-dioxa-7-azaspiro[4.4]nonane-8-carboxamide]	> 1000 nM
N/C(=N\O)c1csc(CNC(=O)[C@@H]2CC3(CN2C(=O)CNC(=O)c2ccc(Oc4ccccc4)cc2)OCCO3)c1 [Compound 66, (S,Z)-N-((4-(N′-hydroxycarbamimidoyl)thiophen-2-yl)methyl)-7-((4-phenoxybenzoyl)glycyl)-1,4-dioxa-7-azaspiro[4.4]nonane-8-carboxamide]	< 100 nM
N=C(N)c1csc(CNC(=O)[C@@H]2CCCN2C(=O)CNC(=O)CCCOc2ccccc2)c1 [Compound 67, (S)-N-((4-carbamimidoylthiophen-2-yl)methyl)-1-((4-phenoxybutanoyl)glycyl)pyrrolidine-2-carboxamide]	< 100 nM
N=C(N)c1csc(CNC(=O)[C@@H]2CCCN2C(=O)CNC(=O)CCCCOc2ccccc2)c1 [Compound 68, (S)-N-((4-carbamimidoylthiophen-2-yl)methyl)-1-((5-phenoxypentanoyl)glycyl)pyrrolidine-2-carboxamide]	< 100 nM
CN(C)CCCC(=O)NCC(=O)N1CCC[C@H]1C(=O)NCc1cc(C(=N)N)cs1 [Compound 69, (S)-N-((4-carbamimidoylthiophen-2-yl)methyl)-1-((4-(dimethylamino)butanoyl)glycyl)pyrrolidine-2-carboxamide]	> 1000 nM
CN(C)CCCCC(=O)NCC(=O)N1CCC[C@H]1C(=O)NCc1cc(C(=N)N)cs1 [Compound 70, (S)-N-((4-carbamimidoylthiophen-2-yl)methyl)-1-((5-(dimethylamino)pentanoyl)glycyl)pyrrolidine-2-carboxamide]	> 1000 nM
CN(C)CCCCCC(=O)NCC(=O)N1CCC[C@H]1C(=O)NCc1cc(C(=N)N)cs1 [Compound 71, (S)-N-((4-carbamimidoylthiophen-2-yl)methyl)-1-((6-(dimethylamino)hexanoyl)glycyl)pyrrolidine-2-carboxamide]	> 1000 nM
CCCc1ccc(C(=O)NCC(=O)N2CCC[C@H]2C(=O)NCc2cc(C(=N)N)cs2)cc1 [Compound 72, (S)-N-((4-carbamimidoylthiophen-2-yl)methyl)-1-((4-propylbenzoyl)glycyl)pyrrolidine-2-carboxamide]	< 100 nM
CCCCc1ccc(C(=O)NCC(=O)N2CCC[C@H]2C(=O)NCc2cc(C(=N)N)cs2)cc1 [Compound 73, (S)-1-((4-butylbenzoyl)glycyl)-N-((4-carbamimidoylthiophen-2-yl)methyl)pyrrolidine-2-carboxamide]	< 100 nM
CCCCCc1ccc(C(=O)NCC(=O)N2CCC[C@H]2C(=O)NCc2cc(C(=N)N)cs2)cc1 [Compound 74, (S)-N-((4-carbamimidoylthiophen-2-yl)methyl)-1-((4-pentylbenzoyl)glycyl)pyrrolidine-2-carboxamide]	< 100 nM
CCCCCCc1ccc(C(=O)NCC(=O)N2CCC[C@H]2C(=O)NCc2cc(C(=N)N)cs2)cc1 [Compound 75, (S)-N-((4-carbamimidoylthiophen-2-yl)methyl)-1-((4-hexylbenzoyl)glycyl)pyrrolidine-2-carboxamide]	< 100 nM
CCOc1ccc(C(=O)NCC(=O)N2CCC[C@H]2C(=O)NCc2cc(C(=N)N)cs2)cc1 [Compound 76, (S)-N-((4-carbamimidoylthiophen-2-yl)methyl)-1-((4-ethoxybenzoyl)glycyl)pyrrolidine-2-carboxamide]	100 to 1000 nM
CCCOc1ccc(C(=O)NCC(=O)N2CCC[C@H]2C(=O)NCc2cc(C(=N)N)cs2)cc1 [Compound 77, (S)-N-((4-carbamimidoylthiophen-2-yl)methyl)-1-((4-propoxybenzoyl)glycyl)pyrrolidine-2-carboxamide]	< 100 nM
CCCCOc1ccc(C(=O)NCC(=O)N2CCC[C@H]2C(=O)NCc2cc(C(=N)N)cs2)cc1 [Compound 78, (S)-1-((4-butoxybenzoyl)glycyl)-N-((4-carbamimidoylthiophen-2-yl)methyl)pyrrolidine-2-carboxamide]	< 100 nM
CCCCCOc1ccc(C(=O)NCC(=O)N2CCC[C@H]2C(=O)NCc2cc(C(=N)N)cs2)cc1 [Compound 79, (S)-N-((4-carbamimidoylthiophen-2-yl)methyl)-1-((4-(pentyloxy)benzoyl)glycyl)pyrrolidine-2-carboxamide]	< 100 nM
N=C(N)c1csc(CNC(=O)[C@@H]2CCCN2C(=O)CNC(=O)CCCCc2ccccc2)c1 [Compound 80, (S)-N-((4-carbamimidoylthiophen-2-yl)methyl)-1-((5-phenylpentanoyl)glycyl)pyrrolidine-2-carboxamide]	< 100 nM
